Values after ≈ are worked out from the molar mass of the structure shown.
Key:
[1] = system: cultured cells (HaCaT keratinocytes, primary dermal fibroblasts, ASCs); assay: In vitro cytotoxicity model overall (cell type not given); format: cell-based, human
Experimental: All of the samples were prepared on the day of the assays. Each product/stock solution was diluted with CfM or CAM until the desired concentration ranges were obtained for the in vitro cytotoxicity assessments, based on OECD recommendations (i.e., with serial dilutions). The tested CLX- and HOCl-based biocides were used as received, apart from dilution with cell culture medium. To perform the cytotoxicity assays, WCB II vials of primary cells and vials of control cell lines (i.e., HaCaT keratinocytes) were thawed and were expanded to confluency. The cells were then harvested and seeded in 24-well plates at densities of 3 × 10^3 and 6 × 10^3 cells/well. The cultures were maintained for 7 days as described previously. The test items were then dispensed in the wells of the culture plates, following dilution in CfM or CAM. The Vashe® source was tested for cytotoxicity at final HOCl concentrations of 786-6290 μM. The Brio® source was tested for cytotoxicity at final HOCl concentrations of 596-4766 μM. The CLX source was tested for cytotoxicity at final concentrations of 0.2-1978 μM. […] The retained test item experimental concentrations were selected based on the OECD […] guideline and on high-throughput screening principles. After 48 h of cell treatment with the test items, the solutions were removed and a 10% solution of CellTiter® (Promega, Madison, WI, USA) in CfM or CAM was added in every well for assessment of cellular viability. The plates were then placed in the incubator for 90 min. The solutions were transferred to a 96-well plate and were analyzed on a Varioskan LUX 3020 spectrophotometer (ThermoFisher Scientific, Waltham, MA, USA) at 490 nm with agitation. Following the cytotoxicity model validation in 24-well plates, the same procedure was used for optimization and upscaling in 96-well plates. The culture plates were seeded with 5 × 10^3 cells/well (i.e., for primary cells) and 10^4 cells/well (i.e., for HaCaT keratinocytes) in a CfM volume of 100 μL per well. […]

HaCaT keratinocytes = assay: In vitro cytotoxicity assay (CellTiter viability) in HaCaT keratinocytes; format: cell-based, human; settings: 48 h treatment
Experimental: (§1) All of the samples were prepared on the day of the assays. Each product/stock solution was diluted with CfM or CAM until the desired concentration ranges were obtained for the in vitro cytotoxicity assessments, based on OECD recommendations (i.e., with serial dilutions). The tested CLX- and HOCl-based biocides were used as received, apart from dilution with cell culture medium.
(§2) To perform the cytotoxicity assays, WCB II vials of primary cells and vials of control cell lines (i.e., HaCaT keratinocytes) were thawed and were expanded to confluency. The cells were then harvested and seeded in 24-well plates at densities of 3 × 10^3 and 6 × 10^3 cells/well. The cultures were maintained for 7 days as described previously. The test items were then dispensed in the wells of the culture plates, following dilution in CfM or CAM. […] Regarding the AR-12 antifungal compound, cytotoxicity was assessed for a concentration range of 0.27–139 µM. […]
(§3) After 48 h of cell treatment with the test items, the solutions were removed and a 10% solution of CellTiter® (Promega, Madison, WI, USA) in CfM or CAM was added in every well for assessment of cellular viability. […] The solutions were transferred to a 96-well plate and were analyzed on a Varioskan LUX 3020 spectrophotometer (ThermoFisher Scientific, Waltham, MA, USA) at 490 nm with agitation. […]

[2] = system: primary dermal fibroblasts; assay: In vitro cytotoxicity assay (CellTiter viability) in polydactyly-derived primary dermal fibroblasts; format: cell-based, human
Experimental: All of the samples were prepared on the day of the assays. Each product/stock solution was diluted with CfM or CAM until the desired concentration ranges were obtained for the in vitro cytotoxicity assessments, based on OECD recommendations (i.e., with serial dilutions). The tested CLX- and HOCl-based biocides were used as received, apart from dilution with cell culture medium. To perform the cytotoxicity assays, WCB II vials of primary cells and vials of control cell lines (i.e., HaCaT keratinocytes) were thawed and were expanded to confluency. The cells were then harvested and seeded in 24-well plates at densities of 3 × 10^3 and 6 × 10^3 cells/well. The cultures were maintained for 7 days as described previously. The test items were then dispensed in the wells of the culture plates, following dilution in CfM or CAM. The Vashe® source was tested for cytotoxicity at final HOCl concentrations of 786-6290 μM. The Brio® source was tested for cytotoxicity at final HOCl concentrations of 596-4766 μM. The CLX source was tested for cytotoxicity at final concentrations of 0.2-1978 μM. […] The solutions were transferred to a 96-well plate and were analyzed on a Varioskan LUX 3020 spectrophotometer (ThermoFisher Scientific, Waltham, MA, USA) at 490 nm with agitation. […]

[3] = system: adipose-derived stem cells (ASC); assay: In vitro cytotoxicity assay (CellTiter viability) in polydactyly-derived ASCs; format: cell-based, human
Experimental: as §1, §2, §3

[4] = system: most medically relevant test strains of yeast; parameters: method as in PMID 27088128, PMID 27645246; settings: cited from earlier work

SMILES: [H]/N=C(\N/C(=N/[H])NCCCCCCNC(=N)NC(=N)Nc1ccc(Cl)cc1)Nc1ccc(Cl)cc1 [CLX, chlorhexidine]
- dilution needed to avoid toxicity in cultured cells ([1]; human, 48 h): 10- and 100

SMILES: NCC(=O)Nc1ccc(-n2nc(C(F)(F)F)cc2-c2ccc3c(ccc4ccccc43)c2)cc1 [AR-12]
- IC50 (HaCaT keratinocytes): 9.96 ± 0.35 µM
- cytotoxicity values [2]: 4 to 8 µg/mL
- IC50 ([2]; 48 h treatment, CellTiter viability): 10.7 ± 0.27 µM
- cytotoxicity values [3]: 4 to 8 µg/mL
- MIC [4]: 8 µM (≈ 3.68 µg/mL)

SMILES: OCl [HOCl, hypochlorous acid]
- comparative in vitro cytotoxicity ([1]; Figures 4-6): less toxicity than CLX
- dose showing in vitro cytotoxicity ([1]; in vitro data gathered herein, 50 times lower than 100–200 ppm in-use doses): 4 µg/mL

From article PMC11544888, “Sustainable Primary Cell Banking for Topical Compound Cytotoxicity Assays: Protocol Validation on Novel Biocides and Antifungals for Optimized Burn Wound Care” (European Burn Journal, 2024)
